Results taken from patent US12030895B2, “Method for preparing heterocyclic derivative compound, composition containing same compound, and hydrate of same compound” (JW PHARMACEUTICAL CORPORATION, priority 2017, dated 2024).
Like-named read-outs stand apart in the source and are kept apart here. Blank lines part the entries; values can stand above or below the compound they belong to.

How the values were obtained:
[1] = for form in which the salt was obtained: salt forms prepared by the same process; for Initial purity: before storage
[2] = Solubility test in FeSSIF; type: physicochemical; conditions: At 240 minutes; 50 mL FeSSIF (pH 5.0), 37° C., paddle 50 rpm; 10 mg compound + 100 mg lactose
Description: The solubility test was carried out using 50 mL of FeSSIF (pH 5.0) as a medium and setting the paddle speed at 50 rpm under the operation condition at 37° C.

gout patients [3] = assay: Serum uric acid level in gout patients per dose; type: in vivo, human; conditions: 14 days; for patients whose serum uric acid level fell below <5.0 mg/dL / percentage of patients whose serum uric acid level fell below <5.0 mg/dL: measured 15th day
Description: The compound was orally administered at doses of 0.25 mg (N=12), 0.5 mg (N=12), 1 mg (N=12) and 2 mg (N=12) based on the active ingredient (3,5-dibromo-4-hydroxyphenyl)(2,3-dihydro-4H-pyrido[4,3-b][1,4]oxazin-4-yl)-methanone (Formula I), and placebo (N=12), for 14 days. The efficacy and safety of the compound on the serum uric acid (UA) level was evaluated in comparison with the placebo.
Serum uric acid levels were measured on the 15th day after administration, and the percentages of patients whose serum uric acid level fell below <6.0 mg/dL and below <5.0 mg/dL were determined and shown in FIG. 13. […] From the above results, it could be understood that a dose less than 2 mg is not effective in the treatment of diseases such as hyperuricemia and gout.
In addition, for a total of 68 gout patients, (3,5-dibromo-4-hydroxyphenyl)(2,3-dihydro-4H-pyrido[4,3-b][1,4]oxazin-4-yl)-methanone hydrochloride 1.5 hydrate according to the present invention was administered. The compound was orally administered at doses of 3 mg (N=13), 5 mg (N=14), 7 mg (N=15) and 10 mg (N=15) based on the active ingredient (3,5-dibromo-4-hydroxyphenyl)(2,3-dihydro-4H-pyrido[4,3-b][1,4]oxazin-4-yl)-methanone (Formula I), and placebo (N=11), for 14 days. The efficacy and safety of the compound on the serum uric acid level was evaluated in comparison with the placebo.
Serum uric acid levels were measured on the 15th day after administration, and the percentages of patients whose serum uric acid level fell below <6.0 mg/dL and below <5.0 mg/dL were determined and shown in FIG. 14.

gout patients [4] = assay: Urinary creatinine levels in gout patients; type: in vivo, human; conditions: 10 mg, oral, 14 days
Description: Furthermore, urinary creatinine levels were also measured in the same patients. The number of cases in which creatinine is increased by more than 0.3 mg/dL or more than 1.5 times compared to baseline is shown in Table 4 below.

[5] = Physical stability to processing factors (grinding, granulating, tableting); type: physicochemical
From the text: In addition, the physical stability to processing factors in the preparation of the above 1.5 hydrate and the non-solvate were compared, and the results are shown in Table 2 below.

gout patients [6] = assay: Adverse drug reaction per dose in gout patients; type: in vivo, human; conditions: oral, 14 days
Description: The compound was orally administered at doses 3 mg (N=14), 5 mg (N=15), 7 mg (N=17) and 10 mg (N=17) based on the active ingredient (3,5-dibromo-4-hydroxyphenyl)(2,3-dihydro-4H-pyrido[4,3-b][1,4]oxazin-4-yl)-methanone (Formula I), and placebo (N=13), for 14 days, and the adverse drug reaction was investigated.

[7] = 30% v/w solvent, granulated about 2 min, dried at 50° C.

form in which the salt was obtained [1]: unstable in a semi-solid form
Compound: Cl.c1cc2c(cn1)NCCO2

solubility [2]: about 125 μg/mL | Number of cases in which creatinine is increased by more than 0.3 mg/dL or more than 1.5 times compared to baseline (gout patients [4]): 3 | Crystallinity change after Tableting ([5]; 2 tons of pressure for 5 sec, 7 mm punches, powder X-ray diffractometer): Δ5% (94→89%) | Solid form after Granulating with 1:1 of water and ethanol [5, 7]: Unchanged | Solid form after Granulating with water [5, 7]: Unchanged | solid forms in granulating ([5]; granulating): no change | Crystallinity change after Grinding ([5]; ground about 2 min using a mortar, powder X-ray diffractometer): Δ3% (94→91%)
Compound: Cl.Cl.O.O.O.O=C(c1cc(Br)c(O)c(Br)c1)N1CCOc2ccncc21.O=C(c1cc(Br)c(O)c(Br)c1)N1CCOc2ccncc21 [hydrochloride 1.5 hydrate, (3,5-dibromo-4-hydroxyphenyl)(2,3-dihydro-4H-pyrido[4,3-b][1,4]oxazin-4-yl)-methanone hydrochloride 1.5 hydrate]
patients whose serum uric acid level fell below <5.0 mg/dL (gout patients [3]; 0.25 mg oral): no patient | patients whose serum uric acid level fell below <5.0 mg/dL (gout patients [3]; 0.5 mg oral): no patient | patients whose serum uric acid level fell below <5.0 mg/dL (gout patients [3]; 1 mg oral): no patient | percentage of patients whose serum uric acid level fell below <5.0 mg/dL (gout patients [3]; 2 mg oral): about 8% | percentage of patients whose serum uric acid level fell below <5.0 mg/dL (gout patients [3]; 3 mg oral): approximately 23% | Patients whose serum uric acid level fell below <6.0 mg/dL (gout patients [3]; 3 mg, 5 mg, 7 mg and 10 mg, oral): appeared in all experimental doses | percentage of patients whose serum uric acid level fell below <5.0 mg/dL (gout patients [3]; 5 mg oral): ~64% | percentage of patients whose serum uric acid level fell below <5.0 mg/dL (gout patients [3]; 7 mg oral): ~80% | percentage of patients whose serum uric acid level fell below <5.0 mg/dL (gout patients [3]; 10 mg oral): ~73% | arthralgia (adverse drug reaction) (gout patients [6]; 3 mg (N = 14)): 0 | joint swelling (adverse drug reaction) (gout patients [6]; 3 mg (N = 14)): 0 | incidence of adverse events such as arthralgia and joint swelling (gout patients [6]; 3 mg, 5 mg, 7 mg and 10 mg): no or very low incidence | arthralgia (adverse drug reaction) (gout patients [6]; 5 mg (N = 15)): 0 | joint swelling (adverse drug reaction) (gout patients [6]; 5 mg (N = 15)): 0 | arthralgia (adverse drug reaction) (gout patients [6]; 7 mg (N = 17)): 0 | joint swelling (adverse drug reaction) (gout patients [6]; 7 mg (N = 17)): 0 | arthralgia (adverse drug reaction), cases (gout patients [6]; 10 mg (N = 17)): [3 cases] | arthralgia (adverse drug reaction), persons (gout patients [6]; 10 mg (N = 17)): 2 persons | arthralgia (adverse drug reaction), share of persons (gout patients [6]; 10 mg (N = 17)): 11.76% | joint swelling (adverse drug reaction), cases (gout patients [6]; 10 mg (N = 17)): [1 case] | joint swelling (adverse drug reaction), persons (gout patients [6]; 10 mg (N = 17)): 1 person | joint swelling (adverse drug reaction), share of persons (gout patients [6]; 10 mg (N = 17)): 5.88%

Compound: O=C(c1cc(Br)c(O)c(Br)c1)N1CCOc2ccncc21 [compound of Formula I, (3,5-dibromo-4-hydroxyphenyl)(2,3-dihydro-4H-pyrido[4,3-b][1,4]oxazin-4-yl)-methanone]
patients whose serum uric acid level fell below <5.0 mg/dL (gout patients [3]; 0.25 mg oral): no patient | patients whose serum uric acid level fell below <5.0 mg/dL (gout patients [3]; 0.5 mg oral): no patient | patients whose serum uric acid level fell below <5.0 mg/dL (gout patients [3]; 1 mg oral): no patient | percentage of patients whose serum uric acid level fell below <5.0 mg/dL (gout patients [3]; 2 mg oral): about 8% | percentage of patients whose serum uric acid level fell below <5.0 mg/dL (gout patients [3]; 3 mg oral): approximately 23% | percentage of patients whose serum uric acid level fell below <5.0 mg/dL (gout patients [3]; 5 mg oral): ~64% | percentage of patients whose serum uric acid level fell below <5.0 mg/dL (gout patients [3]; 7 mg oral): ~80% | percentage of patients whose serum uric acid level fell below <5.0 mg/dL (gout patients [3]; 10 mg oral): ~73%

form in which the salt was obtained [1]: gel form
Compound: O=P(O)(O)O.c1cc2c(cn1)NCCO2

purity, 1 week ([1]; 30° C., 65% RH): 99.05% | purity, 2 weeks ([1]; 30° C., 65% RH): 99.85% | purity, 4 weeks ([1]; 30° C., 65% RH): melted | purity, 1 week ([1]; 40° C., 75% RH): melted | purity, 2 weeks ([1]; 40° C., 75% RH): melted | purity, 4 weeks ([1]; 40° C., 75% RH): melted | Initial purity [1]: 98.88% | Note (stability verdict) ([1]; both conditions, up to 4 weeks): unstable | form in which the salt was obtained [1]: solid form | stability test outcome in words ([1]; stability test for 4 weeks): the solid melted again to a liquid
Compound: O=S(=O)(O)O.c1cc2c(cn1)NCCO2 [Sulfate]

purity, 1 week ([1]; 30° C., 65% RH): 97.72% | purity, 2 weeks ([1]; 30° C., 65% RH): 97.96% | purity, 4 weeks ([1]; 30° C., 65% RH): 98.18% | purity, 1 week ([1]; 40° C., 75% RH): 97.74% | purity, 2 weeks ([1]; 40° C., 75% RH): 97.91% | purity, 4 weeks ([1]; 40° C., 75% RH): 98.10% | Initial purity [1]: 99.36% | Note (purity over the stability test) ([1]; both conditions, up to 4 weeks): >97.5%
Compound: c1cc2c(cn1)NCCO2 [Free base]
